Test results from BindingDB's records for doi:10.1016/j.bmc.2006.08.003 (Hokuriku University, 2006).
pIC50, pKi: −log10 of the molar value.

Molecular target: T1, Lysosomal acid glucosylceramidase (Homo sapiens, UniProt P04062)
T1 sequence (P04062 whole entry): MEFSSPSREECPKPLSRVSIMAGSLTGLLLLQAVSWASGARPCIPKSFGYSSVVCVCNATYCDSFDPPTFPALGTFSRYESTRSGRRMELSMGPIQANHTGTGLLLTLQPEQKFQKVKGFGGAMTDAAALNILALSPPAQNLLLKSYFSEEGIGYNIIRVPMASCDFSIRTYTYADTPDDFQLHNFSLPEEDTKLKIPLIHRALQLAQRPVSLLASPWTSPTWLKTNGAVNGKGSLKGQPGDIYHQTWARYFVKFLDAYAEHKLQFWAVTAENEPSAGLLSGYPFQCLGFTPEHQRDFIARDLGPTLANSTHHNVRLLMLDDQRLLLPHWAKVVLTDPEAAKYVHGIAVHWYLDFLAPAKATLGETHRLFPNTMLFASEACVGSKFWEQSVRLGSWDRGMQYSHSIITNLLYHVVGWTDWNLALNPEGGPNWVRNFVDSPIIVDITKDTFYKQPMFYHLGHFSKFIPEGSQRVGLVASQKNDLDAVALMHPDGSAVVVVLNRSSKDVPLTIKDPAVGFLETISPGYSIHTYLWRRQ
Test: In Vitro Enzyme Inhibition
Settings: pH 5.5; 37 °C

pIC50 | pKi | SMILES
5.38 | 5.64 | CCCCCC[C@H]1N[C@H](CO)[C@@H](O)[C@H](O)[C@H]1O [(2R,3S,4R,5R,6R)-2-hexyl-6-(hydroxymethyl)piperidine-3,4,5-triol]
6.30 | 6.55 | CCCCCCCC[C@H]1N[C@H](CO)[C@@H](O)[C@H](O)[C@H]1O [(2R,3R,4R,5S,6R)-2-(hydroxymethyl)-6-octylpiperidine-3,4,5-triol]
3.40 |  | CCC[C@H]1N[C@H](CO)[C@@H](O)[C@H](O)[C@H]1O [(2R,3R,4R,5S,6R)-2-(hydroxymethyl)-6-propylpiperidine-3,4,5-triol]
3.05 |  | C[C@H]1N[C@H](CO)[C@@H](O)[C@H](O)[C@H]1O [(2R,3R,4R,5S,6R)-2-(hydroxymethyl)-6-methylpiperidine-3,4,5-triol]
 | 3.96 | CCCC[C@H]1N[C@H](CO)[C@@H](O)[C@H](O)[C@H]1O [(2R,3S,4R,5R,6R)-2-butyl-6-(hydroxymethyl)piperidine-3,4,5-triol]

Continued, molecule first:

SMILES | pIC50 | pKi
CCCCCCN1C[C@H](O)[C@@H](O)[C@H](O)[C@H]1CO [(2R,3R,4R,5S)-1-hexyl-2-(hydroxymethyl)piperidine-3,4,5-triol] | 4.89 | 5.26
CCCN1C[C@H](O)[C@@H](O)[C@H](O)[C@H]1CO [(2R,3R,4R,5S)-2-(hydroxymethyl)-1-propylpiperidine-3,4,5-triol] | 3.15 | 
CN1C[C@H](O)[C@@H](O)[C@H](O)[C@H]1CO [(2R,3R,4R,5S)-2-(hydroxymethyl)-1-methylpiperidine-3,4,5-triol] | 3.82 | 
CCCCCCCCN1C[C@H](O)[C@@H](O)[C@H](O)[C@H]1CO [(2R,3R,4R,5S)-2-(hydroxymethyl)-1-octylpiperidine-3,4,5-triol] | 6.09 | 6.38
CCCCCCCCC[C@H]1N[C@H](CO)[C@@H](O)[C@H](O)[C@H]1O [CN-DNJ] | 6.57 | 6.70
